# Data as given in patent US11957759B1, “Rapidly accelerated fibrosarcoma (RAF) degrading compounds and associated methods of use” (Arvinas Operations, Inc., priority 2022, dated 2024).
# How the values were obtained:
# Assay type in all cases: cell-based
# B-RAF V600E [1] = target: T1, B-RAF V600E (Homo sapiens, UniProt P15056, V600E); assay: Target protein degradation, assay A: T-Rex 293 cells, HA-B-RAF_V600E, 96 well format; settings: T-Rex 293 HA-B-RAF_V600E cells, 24 hours, Examples 1-82
# T1 construct: expressed in transfected cells; host or cells: T-Rex 293 cells (Invitrogen #R71007)
# T1 sequence (P15056 whole entry V600E): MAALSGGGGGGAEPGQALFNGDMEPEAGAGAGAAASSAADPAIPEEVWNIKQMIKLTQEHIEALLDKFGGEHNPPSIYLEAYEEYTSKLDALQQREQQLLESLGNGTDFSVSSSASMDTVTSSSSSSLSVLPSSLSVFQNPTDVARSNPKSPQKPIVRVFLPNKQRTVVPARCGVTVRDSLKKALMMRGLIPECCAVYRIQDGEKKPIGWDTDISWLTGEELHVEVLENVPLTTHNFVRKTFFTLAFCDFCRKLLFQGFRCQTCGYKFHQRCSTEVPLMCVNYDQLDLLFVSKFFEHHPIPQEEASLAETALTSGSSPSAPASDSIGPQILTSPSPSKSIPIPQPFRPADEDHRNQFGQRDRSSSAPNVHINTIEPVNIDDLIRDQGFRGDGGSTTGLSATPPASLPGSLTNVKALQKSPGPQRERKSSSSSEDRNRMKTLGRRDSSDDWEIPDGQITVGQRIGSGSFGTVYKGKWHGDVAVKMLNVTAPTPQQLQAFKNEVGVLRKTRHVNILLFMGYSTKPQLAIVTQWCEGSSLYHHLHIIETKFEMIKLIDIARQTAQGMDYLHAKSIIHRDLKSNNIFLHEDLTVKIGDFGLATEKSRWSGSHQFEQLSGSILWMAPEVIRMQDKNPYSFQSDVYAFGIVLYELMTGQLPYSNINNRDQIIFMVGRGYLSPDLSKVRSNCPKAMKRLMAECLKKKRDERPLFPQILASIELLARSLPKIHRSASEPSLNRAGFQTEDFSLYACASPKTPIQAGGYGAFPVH
# Description: A. T-Rex 293 Cells (96 well format)
# T-Rex 293 cells were purchased from Invitrogen (#R71007), and stably transfected with a pcDNA4/TO_HA-B-RAF_V600E construct, using 400 ug Zeocin for selection. V600e cells are plated in ulbecco's Modified Eagle Medium (DMEM; Gibco #11965118) containing 10% fetal bovine serum (FBS; Gibco #16000044) and 1 ng/mL doxycycline (Selleckchem #4163) at a density of 5,000 cells/well in 50 μl on poly-D-lysine (PDL) coated, black clear bottom 96-well plates (Corning #354640) and incubated for 24 hours at 37° C. with 5% CO2. The following day 50 ul of tested compound was added at 2× concentration in DMEM with a final concentration ranging from 1 μM to 0.1 nM in 0.1% dimethylsulfoxide (DMSO), and incubated for 24 hours at 37° C. with 5% CO2. At the end of the experimental treatment, the media was flicked off and cells washed once with phosphate-buffered saline (PBS)++(PBS with CaCl and MgCl) and gently replacing with 200 μl PBS++ per well. The PBS++ was removed and 50 uL 4% paraformaldehyde (PFA; EMS #15710) in PBS++ was added, and incubate at room temperature for 15 minutes. Cells were washed once with PBS++ and 50 uL 0.1% Triton X-100 (Fisher #BP151-500) in PBS++ was added. Plate was incubate for 5 minutes at room temperature. Cells were was once with PBS++. Cells were blocked with 100 uL Licor blocking buffer (Licor #927-50000) for 1 hour at room temperature. Next, 50 uL of HA antibody (CST #3724) at 1:1000 in Licor blocking buffer was added, and the plate icubate overnight at 4° C. The plates were parafilmed to prevent evaporation. Plate was washed three times with 200 uL PBS++. Fifty microliters of HCS secondary antibody solution [1:1000 Hoechst (Invitrogen #H3570), 1:1000 phalloidin (Invitrogen #A22287) and 1:5000 Alexa fluor (Invitrogen #A11008)] was added and incubated for 1 hour. Plate was wash three times with 200 uL PBS++, and imaged on a high content reader (ImageXpress Micro XLS, Molecular Devices).
# (§1) The concentration of an exemplary compound that leads to half maximal degradation (DC50) as well as the maximum degradation observed (Dmax, conventionally expressed as a percentage of control) is shown below in Table 2.
# B-RAF G466V [2] = target: T2, B-RAF G466V (Homo sapiens, UniProt P15056, G466V); assay: Target protein degradation, assay B: T-Rex 293 cells, HA-B-RAF_G466V, 96 well format; settings: T-Rex 293 HA-B-RAF_G466V cells, 24 hours, Examples 1-82
# T2 construct: expressed in transfected cells; host or cells: T-Rex 293 cells (Invitrogen #R71007)
# T2 sequence (P15056 whole entry G466V): as the sequence (P15056 whole entry V600E) above, with G466V, E600V counted along it
# Description: B. T-Rex 293 Cells (96 Well Format)
# T-Rex 293 cells were purchased from Invitrogen (#R71007), and stably transfected with a pcDNA4/TO_HA-B-RAF_G466V construct, using 400 ug Zeocin for selection. G466V cells are plated in ulbecco's Modified Eagle Medium (DMEM; Gibco #11965118) containing 10% fetal bovine serum (FBS; Gibco #16000044) and 0.75 ng/mL doxycycline (Selleckchem #4163) at a density of 5,000 cells/well in 50 μl on poly-D-lysine (PDL) coated, black clear bottom 96-well plates (Corning #354640) and incubated for 24 hours at 37° C. with 5% CO2. The following day 50 ul of tested compound was added at 2× concentration in DMEM with a final concentration ranging from 30 nM to 3 pM in 0.1% dimethylsulfoxide (DMSO), and incubated for 24 hours at 37° C. with 5% CO2. At the end of the experimental treatment, the media was flicked off and cells washed once with phosphate-buffered saline (PBS)++(PBS with CaCl and MgCl) and gently replacing with 200 μl PBS++ per well. The PBS++ was removed and 50 uL 4% paraformaldehyde (PFA; EMS #15710) in PBS++ was added, and incubate at room temperature for 15 minutes. Cells were washed once with PBS++ and 50 uL 0.1% Triton X-100 (Fisher #BP151-500) in PBS++ was added. Plate was incubate for 5 minutes at room temperature. Cells were was once with PBS++. Cells were blocked with 100 uL Licor blocking buffer (Licor #927-50000) for 1 hour at room temperature. Next, 50 uL of HA antibody (CST #3724) at 1:1000 in Licor blocking buffer was added, and the plate icubate overnight at 4° C. The plates were parafilmed to prevent evaporation. Plate was washed three times with 200 uL PBS++. Fifty microliters of HCS secondary antibody solution [1:1000 Hoechst (Invitrogen #H3570), 1:1000 phalloidin (Invitrogen #A22287) and 1:5000 Alexa fluor (Invitrogen #A11008)] was added and incubated for 1 hour. Plate was wash three times with 200 uL PBS++, and imaged on a high content reader (ImageXpress Micro XLS, Molecular Devices).
# as §1
# B-RAF V600E [3] = target: T1, B-RAF V600E; assay: Target protein degradation, assay C: T-Rex 293 cells, HA-BRAF_V600E, 384 well format; settings: T-Rex 293 HA-BRAF_V600E cells, 24 hours, Examples 83-269; for DC50: Assay C
# How it was run: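 After 24 h exposure to an 11-point 1:3 series (300 nM–5 pM, 0.5% DMSO), fixed T-Rex 293 cells carrying HA-BRAF V600E (induced with 1 ng/mL doxycycline) were stained anti-HA and imaged. DC50 and Dmax were derived from BRAF intensity relative to control, and cytotoxicity from nuclear counts.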
# B-RAF G466V [4] = target: T2, B-RAF G466V; assay: Target protein degradation, assay D: T-Rex 293 cells, HA-BRAF_G466V, 384 well format; settings: T-Rex 293 HA-BRAF_G466V cells, 24 hours, Examples 83-269; for DC50: Assay D; for Dmax: T-REx-293, Assay D
# How it was run: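 Degradation measured by high-content imaging of anti-HA immunofluorescence in fixed T-Rex 293 cells carrying inducible HA-BRAF G466V (1 ng/mL doxycycline), after 24 h PROTAC exposure at 37 °C over 300 nM–5 pM (1:3, 11 points, 0.5% DMSO). Outputs DC50 and Dmax as % of control; nuclei counts against DMSO wells gauge toxicity.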
SMILES,DC50 (B-RAF V600E [1]) [nM],Dmax (B-RAF V600E [1]) [%],DC50 (B-RAF G466V [2]) [nM],Dmax (B-RAF G466V [2]) [%],DC50 (B-RAF V600E [3]) [nM],DC50 (B-RAF G466V [4]) [nM],Dmax (B-RAF G466V [4]) [%],"Dmax (B-RAF V600E [3]; T-REx-293, Assay C) [%]"
"N#Cc1c(NS(=O)(=O)N2CC[C@@H](F)C2)ccc(F)c1Oc1ccc2ncn(-c3ccc(N4CCN(CC5CCN(c6ccc([C@H]7CCC(=O)NC7=O)cc6F)CC5)CC4)cc3)c(=O)c2c1 (single isomer, unassigned) [Example 80, (3R)—N-(2-cyano-3-{[3-(4-{4-[(1-{4-[(3R*)-2,6-dioxopiperidin-3-yl]-2-fluorophenyl}piperidin-4-yl)methyl]piperazin-1-yl}phenyl)-4-oxo-3,4-dihydroquinazolin-6-yl]oxy}-4-fluorophenyl)-3-fluoropyrrolidine-1-sulfonamide]",50 to 500,35 to 70,1 to 10,35 to 70,,,,
"N#Cc1c(NS(=O)(=O)N2CC[C@@H](F)C2)ccc(F)c1Oc1ccc2ncn(-c3ccc(N4CCN(CC5CCN(c6ccc7c(c6)CN(C6CCC(=O)NC6=O)C7=O)CC5)CC4)cc3)c(=O)c2c1 (stereo partly drawn) [Example 1, (3R)—N-[2-cyano-3-[3-[4-[4-[[1-[2-(2,6-dioxo-3-piperidyl)-1-oxo-isoindolin-5-yl]-4-piperidyl]methyl]piperazin-1-yl]phenyl]-4-oxo-quinazolin-6-yl]oxy-4-fluoro-phenyl]-3-fluoro-pyrrolidine-1-sulfonamide]",5 to 50,35 to 70,≤ 1,35 to 70,,,,
"N#Cc1c(NS(=O)(=O)N2CC[C@@H](F)C2)ccc(F)c1Oc1ccc2ncn(-c3ccc(N4CCN(CC5CN(c6ccc7c(c6)CN(C6CCC(=O)NC6=O)C7=O)C5)CC4)cc3)c(=O)c2c1 (stereo partly drawn) [Example 2, (3R)—N-{2-cyano-3-[(3-{4-[4-({1-[2-(2,6-dioxopiperidin-3-yl)-1-oxo-2,3-dihydro-1H-isoindol-5-yl]azetidin-3-yl}methyl)piperazin-1-yl]phenyl}-4-oxo-3,4-dihydroquinazolin-6-yl)oxy]-4-fluorophenyl}-3-fluoropyrrolidine-1-sulfonamide]",50 to 500,≤ 35,≤ 1,35 to 70,,,,
"N#Cc1c(NS(=O)(=O)N2CC[C@@H](F)C2)ccc(F)c1Oc1ccc2ncn(-c3ccc(N4CCN(c5ccc6c(c5)CN(C5CCC(=O)NC5=O)C6=O)CC4)cc3)c(=O)c2c1 (stereo partly drawn) [Example 5, (3R)—N-[2-cyano-3-[3-[4-[4-[2-(2,6-dioxo-3-piperidyl)-1-oxo-isoindolin-5-yl]piperazin-1-yl]phenyl]-4-oxo-quinazolin-6-yl]oxy-4-fluoro-phenyl]-3-fluoro-pyrrolidine-1-sulfonamide]",> 500,,> 30,,,,,

# More lines, now with the values ahead:
DC50 (B-RAF V600E [1]) [nM],Dmax (B-RAF V600E [1]) [%],DC50 (B-RAF G466V [2]) [nM],Dmax (B-RAF G466V [2]) [%],DC50 (B-RAF V600E [3]) [nM],DC50 (B-RAF G466V [4]) [nM],Dmax (B-RAF G466V [4]) [%],"Dmax (B-RAF V600E [3]; T-REx-293, Assay C) [%]",SMILES
50 to 500,≤ 35,1 to 10,35 to 70,,,,,"N#Cc1c(NS(=O)(=O)N2CC[C@@H](F)C2)ccc(F)c1Oc1ccc2ncn(-c3ccc(N4CCN(CC5CCN(c6ccc7c(c6)CN(C6CCC(=O)NC6=O)C7=O)CC5)CC4)nc3)c(=O)c2c1 (stereo partly drawn) [Example 3, (3R)—N-[2-cyano-3-[3-[6-[4-[[1-[2-(2,6-dioxo-3-piperidyl)-1-oxo-isoindolin-5-yl]-4-piperidyl]methyl]piperazin-1-yl]-3-pyridyl]-4-oxo-quinazolin-6-yl]oxy-4-fluoro-phenyl]-3-fluoro-pyrrolidine-1-sulfonamide]"
5 to 50,35 to 70,1 to 10,35 to 70,,,,,"N#Cc1c(NS(=O)(=O)N2CC[C@@H](F)C2)ccc(F)c1Oc1ccc2ncn(-c3ccc(N4CCN(C(=O)CC5(O)CCN(c6ccc7c(c6)CN([C@H]6CCC(=O)NC6=O)C7=O)CC5)CC4)cc3)c(=O)c2c1 [Example 4, (3R)—N-(2-cyano-3-{[3-(4-{4-[2-(1-{2-[(3S)-2,6-dioxopiperidin-3-yl]-1-oxo-2,3-dihydro-1H-isoindol-5-yl}-4-hydroxypiperidin-4-yl)acetyl]piperazin-1-yl}phenyl)-4-oxo-3,4-dihydroquinazolin-6-yl]oxy}-4-fluorophenyl)-3-fluoropyrrolidine-1-sulfonamide]"
50 to 500,35 to 70,,,,,,,"N#Cc1c(NS(=O)(=O)N2CC[C@@H](F)C2)ccc(F)c1Oc1ccc2ncn(-c3ccc(N4CCC(CN5CCC(c6ccc7c(c6)CN([C@H]6CCC(=O)NC6=O)C7=O)CC5)CC4)cc3)c(=O)c2c1 [Example 81, (3R)—N-(2-cyano-3-{[3-(4-{4-[(4-{2-[(3S)-2,6-dioxopiperidin-3-yl]-1-oxo-2,3-dihydro-1H-isoindol-5-yl}piperidin-1-yl)methyl]piperidin-1-yl}phenyl)-4-oxo-3,4-dihydroquinazolin-6-yl]oxy}-4-fluorophenyl)-3-fluoropyrrolidine-1-sulfonamide]"
,,,,> 500,10 to 30,≤ 35,,"CC(=O)N(CC1CCN(c2ccc(-n3cnc4ccc(Oc5c(F)ccc(NS(=O)(=O)N6CC[C@@H](F)C6)c5C#N)cc4c3=O)cc2)CC1)[C@H]1C[C@@H](Oc2ccc3c(c2)CN([C@H]2CCC(=O)NC2=O)C3=O)C1 [Example 268, N-{[1-(4-{6-[2-cyano-6-fluoro-3-({[(3R)-3-fluoropyrrolidin-1-yl]sulfonyl}amino)phenoxy]-4-oxo-3,4-dihydroquinazolin-3-yl}phenyl)piperidin-4-yl]methyl}-N-[(1r,3r)-3-({2-[(3S)-2,6-dioxopiperidin-3-yl]-1-oxo-2,3-dihydro-1H-isoindol-5-yl}oxy)cyclobutyl]acetamide]"
,,,,50 to 500,10 to 30,≥ 70,35 to 70,"CC(C)(C1CCN(c2ccc(-n3cnc4ccc(Oc5c(F)ccc(NS(=O)(=O)N6CC[C@@H](F)C6)c5C#N)cc4c3=O)cc2)CC1)N1CCN(c2ccc3c(c2)CN([C@H]2CCC(=O)NC2=O)C3=O)CC1 [Example 269, (3R)-N-(2-cyano-3-{[3-(4-{4-[2-(4-{2-[(3S)-2,6-dioxopiperidin-3-yl]-1-oxo-2,3-dihydro-1H-isoindol-5-yl}piperazin-1-yl)propan-2-yl]piperidin-1-yl}phenyl)-4-oxo-3,4-dihydroquinazolin-6-yl]oxy}-4-fluorophenyl)-3-fluoropyrrolidine-1-sulfonamide]"
